Test results published in patent US20200085776A1, “Methods of Reducing C-Reactive Protein and/or Treating Cardiovascular Disease” (CARDAX, INC., priority 2018, published 2020).
Read-outs that look alike come from different tables or passages of the source.

Assay: Astaxanthin levels in plasma (PK), CHASE clinical study
Format: in vivo, human
Conditions: for concentration at 12 week: human, oral
Description: Blood samples shall be collected for astaxanthin analysis at V2, V4, V6, and V8.
The approximate time of the most recent dose prior to PK sampling shall be documented. PK sampling is sparse, sample acquisition in relationship to the most recent dose will vary, and formal PK calculations (e.g., Tmax, Cmax, T1/2, AUC) are not possible from the collections scheduled. Analysis will consist of a tabular listing and comparison by treatment group with calculation of the mean, median, standard deviation, maximum, and minimum at the nominal visits. Sub-analysis by subject demographic and clinical characteristics (e.g., gender, age, weight, and smoking status) may be performed at the discretion of the Sponsor.
PK samples will be collected into a 6.0 mL K2EDTA tube, gently inverted sufficient times to mix the sample and anticoagulant, and placed in an ice bath for 15 minutes.
The blood samples will be centrifuged at 3500 rpm for ten minutes at room temperature for 10 minutes. Any hemolyzed or clotted samples will be documented in the study data.
All resultant plasma will be split into two approximately equal aliquots and frozen at −60 to −90° C. Samples may be initially placed on dry ice prior to being stored in the appropriate freezer.

[1] = Group X 12 mg BID, V2 baseline pre-dose, BQL (less than 9.77 ng/mL) treated as 4.885
[2] = Group Z 48 mg BID, V2 baseline pre-dose, BQL (less than 9.77 ng/mL) treated as 4.885

CC1=C(/C=C/C(C)=C/C=C/C(C)=C/C=C/C=C(C)/C=C/C=C(C)/C=C/C2=C(C)C(=O)C(O)CC2(C)C)C(C)(C)CC(O)C1=O (stereo not shown) [Astaxanthin, astaxanthin]
astaxanthin levels Max [1]: 4.89, 4.89 ng/mL | astaxanthin levels Mean (SD) [1]: 4.89 (0.00) ng/mL | astaxanthin levels Median [1]: 4.89 ng/mL | astaxanthin levels Min [1]: 4.89, 4.89 ng/mL | astaxanthin levels Max (Group X 12 mg BID, V6 Week 12): 1282 ng/mL | astaxanthin levels Min (Group X 12 mg BID, V6 Week 12): 190.9 ng/mL | astaxanthin levels Max [2]: 221.0 ng/mL | astaxanthin levels Mean (SD) [2]: 17.12 (49.44) ng/mL | astaxanthin levels Median [2]: 4.89 ng/mL | astaxanthin levels Min [2]: 4.89 ng/mL | astaxanthin levels Max (Group Z 48 mg BID, V6 Week 12): 7030 ng/mL | astaxanthin levels Min (Group Z 48 mg BID, V6 Week 12): 409.0 ng/mL | concentration at 12 week (12 mg, Group X 12 mg BID, V6 Week 12, read-out: astaxanthin levels Mean (SD)): 785 ng/mL | concentration at 12 week (12 mg, Group X 12 mg BID, V6 Week 12, read-out: astaxanthin levels Median): 790 ng/mL | concentration at 12 week (48 mg, Group Z 48 mg BID, V6 Week 12, read-out: astaxanthin levels Mean (SD)): 2590 ng/mL | concentration at 12 week (48 mg, Group Z 48 mg BID, V6 Week 12, read-out: astaxanthin levels Median): 2180 ng/mL
